From patent publication US9289509B2, “Uses of immunoconjugates targeting CD138” (Biotest AG, priority 2009, dated 2016)

Key:
[1] = cited from earlier work
[2] = test system: MOLP-8 human multiple myeloma xenografts; experiment: MOLP-8 xenograft in CB.17 SCID mice, single bolus iv (Xenograft Mouse Experiments A, Part I); assay type: in vivo; settings: nBT062 […], all others 250 μg/kg (maytansinoid)
Experimental: The conjugates were evaluated in a CD138-positive xenograft model (MOLP-8) of human multiple myeloma in severe combined immunodeficient (SCID) mice.
In these mice, subcutaneous tumors were established (female CB.17 SCID mice) by inoculation with MOLP-8 cell suspensions. Treatment with a single bolus intravenous injection was conducted when tumor volumes reached an average 113 mm^3. Changes in tumor volume and body weight were monitored twice per week.
Each mouse was inoculated with 1×10^7 MOLP-8 cells subcutaneously into the area under the right shoulder. The total volume was 0.2 ml per mouse, in which the ratio of serum-free medium to matrigel (BD Bioscience, Bedford, Mass.) was 1/1 (v/v). Prior to treatment, the xenograft tumors were monitored daily and were allowed to become established.
Eleven days after tumor cell inoculation, 42 mice were selected based on tumor volumes and body weights. […] The forty-two mice were randomly divided into seven groups (A-G) of six animals each based on tumor volume.
Each of six mice in Group A received 200 μl of PBS as vehicle control.
All agents were intravenously administered as a single bolus injection through a lateral tail vein with a 1 ml syringe fitted with a 27 gauge, ½ inch needle.

RPMI 8226 = experiment: Combination with BT062 in cell lines (Chou and Talalay median effect analysis); assay type: cell-based; settings: RPMI 8226 cells
Experimental: Combination studies in xenograph mouse models were preceded by studies in cell lines. […] Here, IC50 values for the cytotoxic effects for each drug and each cell line are calculated, and then IC50 ratios for each drug pair. The cells were then exposed to dilution series of either these drug mixtures, or the drugs alone. Experimental data were analyzed using the CompuSyn software (ComboSyn, Inc., Paramus, N.J.). Combination Indexes (CI) for each independent experiment were calculated and reported separately. In the analysis, CI less than 1, equal to 1 and more than 1 indicates synergy, additivity and antagonism, respectively. According to the classification of T. C.

MOLP8 = experiment: as above; assay type: cell-based, human; settings: MOLP8 cells
[3] = test system: MOLP8 multiple myeloma cells; experiment: MOLP8 xenograft: BT062 and VELCADE combination therapy; assay type: in vivo, mouse; settings: for Fractional tumor volume (FTV): Velcade alone, dosed days 1, 4, 8 and 11
MOLP-8 tumor xenografts = settings: 450 μg/kg dose; mean time to reach 160 mm^3 minus control
[4] = test system: CD56-positive multiple myeloma; settings: 1 patient each at 60, 90 and 112 mg/m^2/week; heavily pretreated; cited from earlier work
[5] = Velcade 1 mg/kg days 1, 4, 8, 11

## COc1cc2cc(c1Cl)N(C)C(=O)C[C@H](OC(=O)[C@H](C)N(C)C(=O)CCS)[C@]1(C)O[C@H]1[C@H](C)[C@@H]1C[C@@](O)(NC(=O)O1)[C@H](OC)/C=C/C=C(\C)C2 [DM1, N^2-deacetyl-N^2-(3-mercapto-1-oxopropyl)-maytansine]
[1]; more cytotoxic than maytansine
  cytotoxicity relative to maytansine: 3- to 10 fold

## COc1cc2cc(c1Cl)N(C)C(=O)C[C@H](OC(=O)[C@H](C)N(C)C(=O)CCC(C)(C)S)[C@]1(C)O[C@H]1[C@H](C)[C@@H]1C[C@@](O)(NC(=O)O1)[C@H](OC)/C=C/C=C(\C)C2 [DM4, N^2′-deacetyl-N^2′-(4-methyl-4-mercapto-1-oxopentyl)-maytansine, reference compound]
[2]
  effect on tumor growth: did not cause any significant inhibition of tumor growth

## Nc1cccc2c1CN(C1CCC(=O)NC1=O)C2=O (centres unmarked) [Lenalidomide]
RPMI 8226
  estimate of synergy, drug combined with BT062: Synergistic

## O=C1CCC(N2C(=O)c3ccccc3C2=O)C(=O)N1 (stereo not drawn) [Thalidomide, α-(N-phthalimido) glutarimide]
MOLP8
  estimate of synergy, drug combined with BT062: antagonistic effect

## CC(C)C[C@H](NC(=O)[C@H](Cc1ccccc1)NC(=O)c1cnccn1)B(O)O [Velcade, reference compound]
MOLP8; listed as Bortezomib
  estimate of synergy, drug combined with BT062: Slightly antagonistic
MOLP8; listed as bortezomib
  estimate of synergy, drug combined with BT062: antagonistic effect
[3]; VELCADE treatment alone (FIG. 29)
  effect on tumor volume: no effect on the tumor volume
[3]; [5]
  (T-C): 0.5 days
  Regressions Complete: 0/6
  Regressions Partial: 0/6
  Result: Inactive
  T/C (%): 100%
  Tumor free survivors day 67: 0/6
  log cell kill: 0.0
[3]; day 14
  Fractional tumor volume (FTV): 0.84
[3]; day 18
  Fractional tumor volume (FTV): 0.96
[3]; day 21
  Fractional tumor volume (FTV): 0.80
[3]; day 25
  Fractional tumor volume (FTV): 0.95
[3]; day 25, all BT062 dose regimens
  combination effect with BT062 in xenograft model: synergistic

## COc1cc2cc(c1Cl)N(C)C(=O)C[C@H](OC(=O)[C@H](C)N(C)C(C)=O)[C@]1(C)O[C@H]1[C@H](C)[C@@H]1C[C@@](O)(NC(=O)O1)[C@H](OC)/C=C/C=C(\C)C2 [maytansine]
[1]; higher than anti-cancer drugs in clinical use that affect tubulin polymerization
  cytotoxicity relative to Vinca alkaloids or taxol: 200-1000 fold

## B-B4-SPP-DM1 [reference compound]
[2]
  effect on tumor growth: marked delay in tumor growth

## nBT062-DM1
MOLP-8 tumor xenografts
  TGD (tumor growth delay): 18 days

B1: IMGN901 (conjugate, chains of the INN, looked up)
VH: QVQLVESGGGVVQPGRSLRLSCAASGFTFSSFGMHWVRQAPGKGLEWVAYISSGSFTIYYADSVKGRFTISRDNSKNTLYLQMNSLRAEDTAVYYCARMRKGYAMDYWGQGTLVTVSS
VL: DVVMTQSPLSLPVTLGQPASISCRSSQIIIHSDGNTYLEWFQQRPGQSPRRLIYKVSNRFSGVPDRFSGSGSGTDFTLKISRVEAEDVGVYYCFQGSHVPHTFGQGTKVEIK
modifications: mertansine (DM1) conjugate
[4]
  patients with confirmed minor response (MR): 3 patients
